The record followed here is ChEMBL document CHEMBL5465560, “Selectivity Literature for EUbOPEN Chemogenomic Library” (2024).

The structures appear in SMILES notation.

In assay [1] the test system is Fibroblast growth factor receptor 3 (Homo sapiens), P22607 [G697C]. The experiment in a line: (§1) Selectivity interaction (KinomeScan (DiscoverX)) EUB0000607a FGFR3. The note with it: at 10 µM.
Assay [2] deals with Fibroblast growth factor receptor 3 (Homo sapiens, UniProt P22607). The assay is described as §1. The note with it: at 10 µM.
For assay [3], the target named is T1, Serine/threonine-protein kinase DCLK1 (Homo sapiens) (UniProt O15075).
T1 sequence (whole entry): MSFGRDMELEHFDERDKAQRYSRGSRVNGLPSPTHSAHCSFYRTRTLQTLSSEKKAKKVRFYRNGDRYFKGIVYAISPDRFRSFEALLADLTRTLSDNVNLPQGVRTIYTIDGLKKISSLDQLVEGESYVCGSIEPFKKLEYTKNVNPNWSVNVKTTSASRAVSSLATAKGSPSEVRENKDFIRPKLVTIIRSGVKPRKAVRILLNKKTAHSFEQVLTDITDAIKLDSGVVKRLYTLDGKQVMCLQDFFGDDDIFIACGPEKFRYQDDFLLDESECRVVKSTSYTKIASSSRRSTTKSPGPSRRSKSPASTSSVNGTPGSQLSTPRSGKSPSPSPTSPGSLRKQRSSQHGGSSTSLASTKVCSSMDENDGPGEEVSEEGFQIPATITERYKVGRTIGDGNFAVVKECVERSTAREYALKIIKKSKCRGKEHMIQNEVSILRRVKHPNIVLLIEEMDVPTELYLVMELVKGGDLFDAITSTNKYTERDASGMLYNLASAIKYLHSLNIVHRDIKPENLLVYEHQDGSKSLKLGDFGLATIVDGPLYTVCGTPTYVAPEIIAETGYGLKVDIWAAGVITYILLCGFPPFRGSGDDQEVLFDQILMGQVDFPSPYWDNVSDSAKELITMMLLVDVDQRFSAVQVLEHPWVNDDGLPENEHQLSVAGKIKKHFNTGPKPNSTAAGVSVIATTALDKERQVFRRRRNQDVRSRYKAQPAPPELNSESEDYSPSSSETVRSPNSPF
The note with it: at 10 µM.

Assay [4] deals with Ephrin type-A receptor 5 (Homo sapiens) (UniProt P54756). The experiment in a line: Selectivity interaction (KinomeScan (DiscoverX)) EUB0000229b EPHA5. The note with it: at 10 µM.
The target of assay [5] is T2, Mitogen-activated protein kinase kinase kinase 2 (Homo sapiens) (UniProt Q9Y2U5).
T2 sequence (whole entry): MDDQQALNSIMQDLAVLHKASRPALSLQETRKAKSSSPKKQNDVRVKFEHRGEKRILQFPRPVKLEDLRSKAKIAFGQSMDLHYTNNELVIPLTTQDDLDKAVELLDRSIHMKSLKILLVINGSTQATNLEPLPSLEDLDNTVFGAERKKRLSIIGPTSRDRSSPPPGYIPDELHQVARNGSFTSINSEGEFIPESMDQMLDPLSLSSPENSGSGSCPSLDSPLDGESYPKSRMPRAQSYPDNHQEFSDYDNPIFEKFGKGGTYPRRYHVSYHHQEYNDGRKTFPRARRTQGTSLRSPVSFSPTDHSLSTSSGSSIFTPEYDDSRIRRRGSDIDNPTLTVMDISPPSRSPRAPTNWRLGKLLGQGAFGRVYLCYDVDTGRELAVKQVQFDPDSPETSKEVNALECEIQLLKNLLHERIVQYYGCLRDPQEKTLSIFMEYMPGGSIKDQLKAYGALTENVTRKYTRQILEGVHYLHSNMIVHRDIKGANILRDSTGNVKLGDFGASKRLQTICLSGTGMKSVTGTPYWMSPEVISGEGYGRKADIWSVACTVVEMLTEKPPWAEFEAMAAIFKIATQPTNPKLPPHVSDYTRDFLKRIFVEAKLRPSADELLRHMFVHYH
The experiment in a line: Selectivity interaction (ActivX KiNativ screen (kinase selectivity in THP-1 cell lysates)) EUB0000639a MAP3K2. The class given is subcellular. As to conditions: lysate.

Assay [6] deals with Interferon-induced, double-stranded RNA-activated protein kinase (Homo sapiens) (UniProt P19525). The experiment in a line: Selectivity interaction (KinomeScan (DiscoverX)) EUB0001049a EIF2AK2. The note with it: at 1 µM.
Assay [7] has as its target Dual specificity mitogen-activated protein kinase kinase 2 (Homo sapiens) (UniProt P36507). The experiment in a line: Selectivity interaction (KinomeScan (DiscoverX)) EUB0000045b MAP2K2.
In assay [8] the target is Mitogen-activated protein kinase 11 (Homo sapiens) (UniProt Q15759). The experiment in a line: Selectivity interaction (KinomeScan (DiscoverX)) EUB0000045b MAPK11.
Assay [9] deals with T3, Tyrosine-protein kinase Mer (Homo sapiens) (UniProt Q12866).
T3 sequence (whole entry): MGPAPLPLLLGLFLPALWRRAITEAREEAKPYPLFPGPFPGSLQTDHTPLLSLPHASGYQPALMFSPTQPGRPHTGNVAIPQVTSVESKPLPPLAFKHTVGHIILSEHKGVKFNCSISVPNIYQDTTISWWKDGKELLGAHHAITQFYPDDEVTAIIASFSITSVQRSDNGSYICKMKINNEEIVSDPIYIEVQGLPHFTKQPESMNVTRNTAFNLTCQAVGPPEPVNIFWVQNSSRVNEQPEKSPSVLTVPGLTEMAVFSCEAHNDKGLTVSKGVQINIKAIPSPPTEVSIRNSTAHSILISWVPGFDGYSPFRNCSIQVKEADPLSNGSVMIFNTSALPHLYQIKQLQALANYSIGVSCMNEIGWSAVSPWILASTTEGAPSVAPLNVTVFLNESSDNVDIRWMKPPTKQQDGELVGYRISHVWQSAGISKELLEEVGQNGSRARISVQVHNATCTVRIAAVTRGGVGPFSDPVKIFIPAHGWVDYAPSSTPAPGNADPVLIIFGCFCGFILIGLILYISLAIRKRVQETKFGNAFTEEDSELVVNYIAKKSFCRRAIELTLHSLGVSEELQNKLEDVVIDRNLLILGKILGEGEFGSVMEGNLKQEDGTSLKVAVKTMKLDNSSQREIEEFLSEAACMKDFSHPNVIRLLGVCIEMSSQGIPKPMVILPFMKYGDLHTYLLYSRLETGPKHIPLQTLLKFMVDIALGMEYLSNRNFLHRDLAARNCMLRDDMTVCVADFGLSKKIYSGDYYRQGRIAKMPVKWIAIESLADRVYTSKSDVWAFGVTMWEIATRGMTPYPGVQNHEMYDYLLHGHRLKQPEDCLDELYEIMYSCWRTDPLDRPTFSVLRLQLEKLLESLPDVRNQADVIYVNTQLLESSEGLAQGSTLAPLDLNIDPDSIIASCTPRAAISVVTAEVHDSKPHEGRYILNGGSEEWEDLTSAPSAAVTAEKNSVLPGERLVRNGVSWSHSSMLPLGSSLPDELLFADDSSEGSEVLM
Kind of assay: Selectivity interaction (KinomeScan (DiscoverX)) EUB0000045b MERTK.

Chain of Mitogen-activated protein kinase 11 (Homo sapiens) (Q15759 whole entry): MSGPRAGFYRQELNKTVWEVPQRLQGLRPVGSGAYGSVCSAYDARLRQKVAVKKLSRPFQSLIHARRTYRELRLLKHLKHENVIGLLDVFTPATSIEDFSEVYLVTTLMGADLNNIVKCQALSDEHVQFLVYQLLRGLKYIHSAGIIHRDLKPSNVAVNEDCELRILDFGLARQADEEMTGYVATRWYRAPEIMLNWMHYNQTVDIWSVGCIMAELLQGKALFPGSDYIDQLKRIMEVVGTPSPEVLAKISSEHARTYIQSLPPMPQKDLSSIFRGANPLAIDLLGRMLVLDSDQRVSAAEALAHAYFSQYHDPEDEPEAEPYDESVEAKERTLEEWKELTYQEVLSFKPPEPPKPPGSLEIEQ
Chain of Dual specificity mitogen-activated protein kinase kinase 2 (Homo sapiens) (P36507 whole entry): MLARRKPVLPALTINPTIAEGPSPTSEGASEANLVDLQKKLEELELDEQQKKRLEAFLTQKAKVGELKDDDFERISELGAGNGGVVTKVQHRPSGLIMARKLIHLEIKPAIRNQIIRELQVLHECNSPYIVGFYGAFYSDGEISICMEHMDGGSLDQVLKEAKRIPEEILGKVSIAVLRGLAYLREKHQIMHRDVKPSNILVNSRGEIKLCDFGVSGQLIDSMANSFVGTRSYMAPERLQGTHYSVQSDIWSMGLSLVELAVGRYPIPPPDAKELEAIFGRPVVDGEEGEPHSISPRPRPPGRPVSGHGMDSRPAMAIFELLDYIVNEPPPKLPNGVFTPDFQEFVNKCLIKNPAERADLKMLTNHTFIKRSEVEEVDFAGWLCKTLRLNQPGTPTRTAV
Chain of Ephrin type-A receptor 5 (Homo sapiens) (P54756 whole entry): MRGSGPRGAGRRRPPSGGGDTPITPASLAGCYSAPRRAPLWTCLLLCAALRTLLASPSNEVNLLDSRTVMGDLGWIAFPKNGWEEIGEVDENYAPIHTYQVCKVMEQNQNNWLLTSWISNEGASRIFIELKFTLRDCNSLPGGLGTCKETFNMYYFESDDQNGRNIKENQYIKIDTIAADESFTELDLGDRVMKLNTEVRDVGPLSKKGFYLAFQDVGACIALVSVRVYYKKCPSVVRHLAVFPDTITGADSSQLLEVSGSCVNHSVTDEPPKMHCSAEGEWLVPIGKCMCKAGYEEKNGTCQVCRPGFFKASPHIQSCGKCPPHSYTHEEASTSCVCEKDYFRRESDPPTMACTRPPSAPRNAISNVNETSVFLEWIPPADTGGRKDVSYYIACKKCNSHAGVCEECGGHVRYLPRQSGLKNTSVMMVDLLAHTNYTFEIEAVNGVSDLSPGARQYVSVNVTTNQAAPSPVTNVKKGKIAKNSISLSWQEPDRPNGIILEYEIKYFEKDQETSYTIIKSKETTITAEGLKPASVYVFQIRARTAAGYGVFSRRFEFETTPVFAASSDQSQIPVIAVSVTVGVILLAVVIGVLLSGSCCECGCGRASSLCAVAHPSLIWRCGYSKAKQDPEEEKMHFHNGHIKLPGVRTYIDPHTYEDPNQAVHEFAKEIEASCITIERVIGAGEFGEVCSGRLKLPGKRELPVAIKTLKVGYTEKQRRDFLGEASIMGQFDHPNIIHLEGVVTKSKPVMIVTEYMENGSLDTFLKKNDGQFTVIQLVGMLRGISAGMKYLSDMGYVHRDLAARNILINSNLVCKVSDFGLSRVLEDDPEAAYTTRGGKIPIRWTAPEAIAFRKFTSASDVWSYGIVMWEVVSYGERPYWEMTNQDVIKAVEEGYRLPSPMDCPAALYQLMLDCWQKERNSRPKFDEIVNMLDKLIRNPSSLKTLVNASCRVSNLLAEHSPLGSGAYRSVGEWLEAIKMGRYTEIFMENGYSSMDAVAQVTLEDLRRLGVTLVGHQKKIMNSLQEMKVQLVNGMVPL
Chain of Fibroblast growth factor receptor 3 (P22607 23-806 limits assumed): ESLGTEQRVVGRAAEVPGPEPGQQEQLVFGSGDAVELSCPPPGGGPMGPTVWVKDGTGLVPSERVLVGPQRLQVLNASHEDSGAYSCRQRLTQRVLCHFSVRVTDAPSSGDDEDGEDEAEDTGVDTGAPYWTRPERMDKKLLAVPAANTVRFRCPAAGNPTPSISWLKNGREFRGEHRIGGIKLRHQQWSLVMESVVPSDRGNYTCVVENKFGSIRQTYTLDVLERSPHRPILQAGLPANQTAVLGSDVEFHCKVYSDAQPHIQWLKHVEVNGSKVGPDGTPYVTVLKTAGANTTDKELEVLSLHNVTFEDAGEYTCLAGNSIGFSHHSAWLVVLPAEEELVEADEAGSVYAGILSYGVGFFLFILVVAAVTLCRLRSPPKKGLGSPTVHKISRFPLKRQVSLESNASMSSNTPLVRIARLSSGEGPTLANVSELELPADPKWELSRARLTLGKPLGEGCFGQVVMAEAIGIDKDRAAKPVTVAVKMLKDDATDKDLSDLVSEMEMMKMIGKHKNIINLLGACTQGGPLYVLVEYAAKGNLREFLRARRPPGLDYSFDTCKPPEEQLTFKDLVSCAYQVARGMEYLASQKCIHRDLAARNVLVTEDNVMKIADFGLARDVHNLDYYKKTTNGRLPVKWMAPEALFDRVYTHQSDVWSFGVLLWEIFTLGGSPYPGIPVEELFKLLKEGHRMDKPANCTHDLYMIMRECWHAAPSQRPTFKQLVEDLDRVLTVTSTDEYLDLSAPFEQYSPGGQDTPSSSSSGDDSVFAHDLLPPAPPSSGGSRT
Chain of Fibroblast growth factor receptor 3 (Homo sapiens), P22607 [G697C] (P22607 whole entry G697C): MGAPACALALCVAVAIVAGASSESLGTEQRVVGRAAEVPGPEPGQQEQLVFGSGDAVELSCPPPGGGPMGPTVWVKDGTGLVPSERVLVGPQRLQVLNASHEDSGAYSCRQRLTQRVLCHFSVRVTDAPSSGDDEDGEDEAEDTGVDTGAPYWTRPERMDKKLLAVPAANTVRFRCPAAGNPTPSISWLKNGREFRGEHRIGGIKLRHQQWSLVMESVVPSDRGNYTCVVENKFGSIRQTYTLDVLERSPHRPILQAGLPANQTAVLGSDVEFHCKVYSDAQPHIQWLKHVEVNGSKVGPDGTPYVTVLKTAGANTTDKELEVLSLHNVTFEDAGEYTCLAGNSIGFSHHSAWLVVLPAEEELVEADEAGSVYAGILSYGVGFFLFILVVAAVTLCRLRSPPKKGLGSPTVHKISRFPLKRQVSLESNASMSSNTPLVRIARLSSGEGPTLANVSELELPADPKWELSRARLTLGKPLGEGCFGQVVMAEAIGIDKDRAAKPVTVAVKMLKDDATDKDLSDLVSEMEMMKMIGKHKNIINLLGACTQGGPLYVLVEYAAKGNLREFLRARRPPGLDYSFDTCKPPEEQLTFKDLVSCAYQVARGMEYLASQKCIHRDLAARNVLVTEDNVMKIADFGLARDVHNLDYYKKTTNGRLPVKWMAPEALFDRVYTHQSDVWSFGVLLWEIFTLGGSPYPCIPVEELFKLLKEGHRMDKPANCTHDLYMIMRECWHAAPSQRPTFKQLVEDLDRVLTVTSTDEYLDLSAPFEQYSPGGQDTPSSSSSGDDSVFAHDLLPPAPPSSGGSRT
Chain of Interferon-induced, double-stranded RNA-activated protein kinase (Homo sapiens) (P19525 whole entry): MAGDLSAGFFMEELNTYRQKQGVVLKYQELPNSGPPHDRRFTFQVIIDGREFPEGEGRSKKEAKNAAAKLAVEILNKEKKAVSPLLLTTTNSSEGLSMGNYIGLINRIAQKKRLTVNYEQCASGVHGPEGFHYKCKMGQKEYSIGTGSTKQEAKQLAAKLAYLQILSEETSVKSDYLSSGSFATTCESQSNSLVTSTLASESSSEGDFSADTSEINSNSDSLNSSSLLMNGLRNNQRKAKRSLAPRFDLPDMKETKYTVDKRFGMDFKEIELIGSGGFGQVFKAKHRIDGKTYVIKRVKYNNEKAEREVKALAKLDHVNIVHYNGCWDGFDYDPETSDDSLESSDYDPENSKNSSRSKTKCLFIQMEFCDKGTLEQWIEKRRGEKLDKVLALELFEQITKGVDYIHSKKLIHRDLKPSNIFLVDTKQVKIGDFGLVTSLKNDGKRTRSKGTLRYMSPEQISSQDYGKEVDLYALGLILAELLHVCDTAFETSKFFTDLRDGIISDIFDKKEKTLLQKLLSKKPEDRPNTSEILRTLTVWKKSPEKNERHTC

For `CNC(=O)Nc1ccc(-c2nc(N3CC4CCC(C3)O4)c3cnn(C4CCC5(CC4)OCCO5)c3n2)cc1`, the % of control in assay [1] was 74%; in assay [2], 83%.

In assay [3], `Cc1cc([C@@H](C)Nc2ccccc2C(=O)O)c2nc(N3CCOCC3)cc(=O)n2c1` [AZD-6482] displayed a % of control of 78%.

Take `COc1cc(N(C)c2ccnc3ccc(C(F)(F)F)cc23)cc(OC)c1OC`: in assay [4], the % binding was 97%.

With `CC[C@@H]1[C@H](F)C(=O)N[C@@H]1COc1nccc2cc(C(N)=O)c(OC)cc12` [ZIMLOVISERTIB], the % of inhibition was -0.4% in assay [5] (at 0.01 µM); -0.5% in [5] (at 0.04 µM); -5.2% in assay [5] (at 0.2 µM); 3% in assay [5] (at 1 µM); 6.3% in assay [5] (at 5 µM).

Molecule `COc1cc(Nc2nc(C)cc(-c3cnn4nc(OC)ccc34)n2)cc(C(F)(F)F)c1` registered a % of control in assay [6] of 100%.

As for `C=CC(=O)Nc1cc(-n2c(=O)ccc3cnc4ccc(-c5ccc(NS(C)(=O)=O)cc5)cc4c32)ccc1C`, the % of control in assay [7] (at 1 µM) was 96%; in assay [7] (at 10 µM), 66%; in assay [8] (at 1 µM), 90%; in [8] (at 10 µM) it was 95%; in assay [9] (at 1 µM), 72%; in [9] (at 10 µM), 100%.
